According to patent US11179397B2, “Imidazopyrimidine derivatives” (Gilead Sciences, Inc., priority 2018, dated 2021):

Columns and labels:
[1] = biological target: SHP-2 full length protein (Homo sapiens (Human), UniProt Q06124); experiment: SHP-2 biochemical DiFMUP pseudosubstrate-fluorogenic assay; details: 0.2 nM SHP-2, 1 μM IRS-1 activator peptide, 50 μM DiFMUP; read-out: SHP2 IC50
Description: SHP-2 Biochemical Assay Materials Recombinant SHP-2 full length protein was generated in house. SHP-2 protein tyrosine phosphatase (PTP) domain protein (Catalog number SPR0217-20 ug), NaCl (Catalog number S6546-1L), and KCl (Catalog number 60142-500 mL) were purchased from Sigma-Aldrich (St. Louis, Mo.). IRS-1_[…](dPEG8)[…] peptide […]) was custom made by AnaSpec (Fremont, Calif.). DiFMUP substrate (Catalog number D6567), EDTA (Catalog number E177-500 mL), DTT (Catalog number P2325), and 384-well black polystyrene non-binding surface (Catalog number 3820) were purchased from Fisher Scientific (Hanover Park, Ill.). HEPES (Catalog number 15630-080) was purchased from Life Technologies (Pleasanton, Calif.), and Tween-20 (Catalog number 95059-250) was purchased from VWR (Radnor, Pa.). Method Inhibition of SHP-2 activity by small molecule inhibitors was monitored by a biochemical DiFMUP pseudosubstrate-fluorogenic assay. […] The reaction mix was added to the 384-well non-binding plate which had been pre-spotted with 1:3 serial diluted compounds from 10,000-0.005 nM, and incubated at room temperature for 90 min. DiFMUP substrate at final concentration of 50 μM was then added to the wells and incubated for additional 30 min at room temperature. The final reaction volume was 20 μl/well. […] The inhibitor dose response curves were generated using normalized IC50 regression curve fitting by in house dose response analysis tools. The wells with DMSO vehicle were used as controls (100% signal). The percent (%) control of SHP-2 compound was calculated as: (Compound well fluorescence counts/DMSO fluorescence counts)×100%.

[2] = tested on: NCI-H358 cells; experiment: NCI-H358 3D tumor spheroid growth inhibition; format: cell-based; details: Homo sapiens, NCI-H358, 168 h, 3D spheroids, 7 days, 3D CellTiter Glo; cellular IC50 designated EC50; read-out: H358 EC50
Source text: SHP-2 Cell Based Assay: […] Materials NCI-H358 cell line was purchased from [NT] number ATCC CRL-5807) (Manassas, Va.). RPMI-1640 (Catalog number 10-040-CM) was from Corning Cellgro (Manassas, Va.), Fetal Bovine Serum (FBS) (Catalog number SH30071.03) was from HyClone (Logan, Utanh), and 100× Penicillin/Streptomycin/L-Glutamine stock (Catalog no. 30-009-CI) and 384-well ULA plates (Catalog number 3830) were from Corning (Fremont, Calif.). Method […] At the day of assay, the cells were trypsinized and seeded at 1000 cells/70 μl/well in 384-well ULA plates and incubated at 37° C. incubator with 5% CO2 to allow spheroids to form. […] The plates were incubated for additional 7 days. Then 35 μl of medium from each well was removed, and replaced with 35 μl of 3D CellTiter Glo reagent from Promega. The wells were mixed by pipetting up and down with Biomek FX for 15 times to induce cell lysis and the plates were incubated at room temperature for additional 10 min to stabilize luminescent signal. The luminescence was then read by Envision. The inhibitor dose response curves were generated using normalized cellular IC50 (designated as EC50 in all FIGURES to distinguish from biochemical IC50s) by in house dose response analyses tools. The wells with DMSO vehicle were used as negative controls (0% inhibition). The % inhibition of SHP-2 compounds was calculated as: 100-[(Compound well luminescence counts/DMSO luminescence counts)×100%].

Sequence of SHP-2 full length protein (Q06124 whole entry): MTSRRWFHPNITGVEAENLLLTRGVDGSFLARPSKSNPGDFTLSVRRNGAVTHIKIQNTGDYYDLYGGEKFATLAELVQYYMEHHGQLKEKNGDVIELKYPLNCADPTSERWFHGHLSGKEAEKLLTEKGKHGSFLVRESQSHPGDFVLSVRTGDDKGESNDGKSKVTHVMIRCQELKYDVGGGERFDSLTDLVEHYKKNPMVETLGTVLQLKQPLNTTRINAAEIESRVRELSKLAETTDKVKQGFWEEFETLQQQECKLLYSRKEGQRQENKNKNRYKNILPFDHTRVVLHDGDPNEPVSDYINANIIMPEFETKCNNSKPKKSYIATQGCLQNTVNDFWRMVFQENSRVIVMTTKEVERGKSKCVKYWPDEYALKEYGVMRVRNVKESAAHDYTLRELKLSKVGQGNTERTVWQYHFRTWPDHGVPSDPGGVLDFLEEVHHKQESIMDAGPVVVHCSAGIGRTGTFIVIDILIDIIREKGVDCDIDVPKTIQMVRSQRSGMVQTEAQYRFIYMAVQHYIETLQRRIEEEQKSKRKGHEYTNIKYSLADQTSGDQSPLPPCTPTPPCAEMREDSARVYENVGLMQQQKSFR

In the case of `Cc1nc(N2CCC3(CCC[C@H]3N)CC2)n2ccnc2c1-c1cccc2cc[nH]c12` [Example 3], the IC50 [1] is reported as 86 nM.
In the case of `Cc1nc(N2CCC3(CCC[C@H]3N)CC2)n2ccnc2c1-c1ccncc1` [Example 4, (R)-8-(7-methyl-8-(pyridin-4-yl)imidazo[1,2-c]pyrimidin-5-yl)-8-azaspiro[4.5]decan-1-amine], the IC50 [1] is reported as 1800 nM.
`Cc1nc(N2CCC3(CCC[C@H]3N)CC2)n2ccnc2c1-c1ccccn1` [Example 6, (R)-8-(7-methyl-8-(pyridin-2-yl)imidazo[1,2-c]pyrimidin-5-yl)-8-azaspiro[4.5]decan-1-amine] showed an IC50 [1] of 5400 nM.
For `Cc1nc(N2CCC3(CCC[C@H]3N)CC2)n2ccnc2c1-c1ccccc1Cl` [Example 8, (R)-8-(8-(2-chlorophenyl)-7-methylimidazo[1,2-c]pyrimidin-5-yl)-8-azaspiro[4.5]decan-1-amine], the IC50 [1] was 26 nM.
`Cc1cnn(C)c1-c1c(C)nc(N2CCC3(CCC[C@H]3N)CC2)n2ccnc12` [Example 14, (R)-8-(8-(1,4-dimethyl-1H-pyrazol-5-yl)-7-methylimidazo[1,2-c]pyrimidin-5-yl)-8-azaspiro[4.5]decan-1-amine] gave an IC50 [1] of over 10000 nM.
Work on `Cc1nc(N2CCC3(CCC[C@H]3N)CC2)n2ccnc2c1-c1cc(N)ncc1Cl` [Example 16, (R)-8-(8-(2-amino-5-chloropyridin-4-yl)-7-methylimidazo[1,2-c]pyrimidin-5-yl)-8-azaspiro[4.5]decan-1-amine] yielded an IC50 [1] of 570 nM.
`Cc1nc(N2CCC3(CCC[C@H]3N)CC2)n2ccnc2c1Sc1ccc(N)nc1C(F)(F)F` [Example 17, (R)-8-(8-((6-amino-2-(trifluoromethyl)pyridin-3-yl)thio)-7-methylimidazo[1,2-c]pyrimidin-5-yl)-8-azaspiro[4.5]decan-1-amine] showed an IC50 [1] of 9.9 nM.
`Cc1nc(N2CCC3(CCC[C@H]3N)CC2)n2ccnc2c1-c1cccnc1C(F)(F)F` [Example 19, (R)-8-(7-methyl-8-(2-(trifluoromethyl)pyridin-3-yl)imidazo[1,2-c]pyrimidin-5-yl)-8-azaspiro[4.5]decan-1-amine] was tested, and the IC50 [1] was over 10000 nM.
With `Cc1noc(C)c1-c1c(C)nc(N2CCC3(CCC[C@H]3N)CC2)n2ccnc12` [Example 20] the IC50 [1] was over 10000 nM.
`Cc1nc(N2CCC3(CCC[C@H]3N)CC2)n2ccnc2c1-c1ccccc1C(F)(F)F` [Example 21, (R)-8-(7-methyl-8-(2-(trifluoromethyl)phenyl)imidazo[1,2-c]pyrimidin-5-yl)-8-azaspiro[4.5]decan-1-amine] was tested, and the IC50 [1] was over 10000 nM.
`Cc1nc(N2CCC3(CCC[C@H]3N)CC2)n2ccnc2c1-c1cccnc1` [Example 22, (R)-8-(7-methyl-8-(pyridin-3-yl)imidazo[1,2-c]pyrimidin-5-yl)-8-azaspiro[4.5]decan-1-amine] showed an IC50 [1] of 1700 nM.
`Cc1nc(N2CCC3(CCC[C@H]3N)CC2)n2ccnc2c1-c1ccnc(C(F)(F)F)c1` [Example 24, (R)-8-(7-methyl-8-(2-(trifluoromethyl)pyridin-4-yl)imidazo[1,2-c]pyrimidin-5-yl)-8-azaspiro[4.5]decan-1-amine] gave an IC50 [1] of over 10000 nM.
Compound `Cc1nc(N2CCC3(CCC[C@H]3N)CC2)n2ccnc2c1-c1cnc(N)c(Cl)c1Cl` [Example 27] has an EC50 [2] of 180 nM.
With `Cc1nc(N2CCC3(CC2)C[C@H](O)C[C@H]3N)n2ccnc2c1-c1cccc(Cl)c1Cl` [Example 34, (2S,4R)-4-amino-8-(8-(2,3-dichlorophenyl)-7-methylimidazo[1,2-c]pyrimidin-5-yl)-8-azaspiro[4.5]decan-2-ol] the IC50 [1] was 3.3 nM.
Work on `CC1(N)CCN(c2ncc(Sc3ccnc(N)c3Cl)c3nccn23)CC1` [Example 36] yielded an EC50 [2] of over 12500 nM.
In the case of `C[C@@H]1OCC2(CCN(c3ncc(Sc4ccc(N)nc4C(F)(F)F)c4nccn34)CC2)[C@@H]1N` [Example 37, (3S,4S)-8-(8-((6-amino-2-(trifluoromethyl)pyridin-3-yl)thio)imidazo[1,2-c]pyrimidin-5-yl)-3-methyl-2-oxa-8-azaspiro[4.5]decan-4-amine], the IC50 [1] is reported as 17 nM.
Work on `C[C@@H]1OCC2(CCN(c3ncc(Sc4cc(N)ncc4C(F)(F)F)c4ncc(Cl)n34)CC2)[C@@H]1N` [Example 39] yielded an EC50 [2] of 570 nM.
Work on `CC1(CN)CCN(c2ncc(Sc3cccc(Cl)c3Cl)c3nccn23)CC1` [Example 43, (1-(8-((2,3-dichlorophenyl)thio)imidazo[1,2-c]pyrimidin-5-yl)-4-methylpiperidin-4-yl)methanamine] yielded an IC50 [1] of 23 nM.
For `CC1(N)CCN(c2ncc(Sc3ccccc3)c3nccn23)CC1` [Example 49, 4-methyl-1-(8-(phenylthio)imidazo[1,2-c]pyrimidin-5-yl)piperidin-4-amine], the IC50 [1] was 7200 nM.
`Nc1cc(C(F)(F)F)c(Sc2cnc(N3CCC4(CCC[C@H]4N)CC3)n3ccnc23)cn1` [Example 50, (R)-8-(8-((6-amino-4-(trifluoromethyl)pyridin-3-yl)thio)imidazo[1,2-c]pyrimidin-5-yl)-8-azaspiro[4.5]decan-1-amine] showed an IC50 [1] of 7500 nM.
Compound `Nc1ccc(Sc2cnc(N3CCC4(CCC[C@H]4N)CC3)n3ccnc23)c(C(F)(F)F)n1` [Example 51, (R)-8-(8-((6-amino-2-(trifluoromethyl)pyridin-3-yl)thio)imidazo[1,2-c]pyrimidin-5-yl)-8-azaspiro[4.5]decan-1-amine] has an IC50 [1] of 15 nM.
For `Nc1cc(Sc2cnc(N3CCC4(CCC[C@H]4N)CC3)n3ccnc23)c(C(F)(F)F)cn1` [Example 53, (R)-8-(8-((2-amino-5-(trifluoromethyl)pyridin-4-yl)thio)imidazo[1,2-c]pyrimidin-5-yl)-8-azaspiro[4.5]decan-1-amine], the IC50 [1] was 12 nM.
Compound `N[C@@H]1CCCC12CCN(c1ncc(Sc3cncnc3C(F)(F)F)c3nccn13)CC2` [Example 54, (R)-8-(8-((4-(trifluoromethyl)pyrimidin-5-yl)thio)imidazo[1,2-c]pyrimidin-5-yl)-8-azaspiro[4.5]decan-1-amine] has an IC50 [1] of 4800 nM.
`NC1CCCCN(c2ncc(Sc3cccc(Cl)c3Cl)c3nccn23)C1` (stereo not shown) [Example 59, 1-(8-((2,3-dichlorophenyl)thio)imidazo[1,2-c]pyrimidin-5-yl)azepan-3-amine] was tested, and the IC50 [1] was over 10000 nM.
Compound `Cc1nc(N2CCC3(CCC[C@H]3N)CC2)n2ncnc2c1-c1cccc(Cl)c1Cl` [Example 60, (R)-8-(8-(2,3-dichlorophenyl)-7-methyl-[1,2,4]triazolo[1,5-c]pyrimidin-5-yl)-8-azaspiro[4.5]decan-1-amine] has an IC50 [1] of 97 nM.
`Cc1nnc2c(Sc3cccc(Cl)c3Cl)cnc(N3CCC(C)(CN)CC3)n12` [Example 64, (1-(8-((2,3-dichlorophenyl)thio)-3-methyl-[1,2,4]triazolo[4,3-c]pyrimidin-5-yl)-4-methylpiperidin-4-yl)methanamine] gave an IC50 [1] of 800 nM.
Work on `Cc1nc(N2CCC3(CCC[C@H]3N)CC2)n2cnnc2c1-c1cccc(Cl)c1Cl` [Example 65, (R)-8-(8-(2,3-dichlorophenyl)-7-methyl[1,2,4]triazolo[4,3-c]pyrimidin-5-yl)-8-azaspiro[4.5]decan-1-amine] yielded an IC50 [1] of 20 nM.
With `N[C@@H]1CCCC12CCN(c1ncc(Sc3cccc4ncccc34)c3nccn13)CC2` [Example 84] the EC50 [2] was 240 nM.
For `C[C@@H]1OCC2(CCN(c3ncc(Sc4nccc5ccccc45)c4nccn34)CC2)[C@@H]1N` [Example 118, (3S,4S)-8-(8-(isoquinolin-1-ylthio)imidazo[1,2-c]pyrimidin-5-yl)-3-methyl-2-oxa-8-azaspiro[4.5]decan-4-amine], the IC50 [1] was 550 nM.
Compound `C[C@@H]1OCC2(CCN(c3ncc(Sc4ccnc5cc(C#N)ccc45)c4nccn34)CC2)[C@@H]1N` [Example 125, 4-((5-((3S,4S)-4-amino-3-methyl-2-oxa-8-azaspiro[4.5]decan-8-yl)imidazo[1,2-c]pyrimidin-8-yl)thio)quinoline-7-carbonitrile] has an IC50 [1] of 51 nM.
`C[C@@H]1OCC2(CCN(c3ncc(Sc4ccnc5cc(Cl)ccc45)c4nccn34)CC2)[C@@H]1N` [Example 134, (3S,4S)-8-(8-((7-chloroquinolin-4-yl)thio)imidazo[1,2-c]pyrimidin-5-yl)-3-methyl-2-oxa-8-azaspiro[4.5]decan-4-amine] gave an IC50 [1] of 9 nM.
